Experimental data reported in patent US5356923A, “1-hydroxy-4(3-cyclopentyloxy-4-methoxyphenyl)-2-pyrrolidone and anti-hypertensive use thereof” (Orion-yhtyma Oy, priority 1990, dated 1994).

Columns and labels:
PDE III [1] = biological target: T1, PDE III (Homo sapiens, UniProt Q14432); experiment: Inhibition of PDE III; type: biochemical; settings: PDE isoenzymes isolated using DEAE-Sepharose chromatography
T1 construct: PDE isoenzymes were isolated using DEAE-Sepharose chromatography; from tissue; the cited Reeves et al. 1987 used human and guinea-pig cardiac ventricle (own knowledge)
Description: (§1) PDE isoenzymes were isolated using DEAE-Sepharose chromatography as described by Reeves et al. in Biochem. J., 241 (1987), pp. 535-541. PDE IV and PDE III activities were determined by the method of Alajoutsijarvi and Nissinen as described in Anal. Biochem. 165 (1987), pp. 128-132.

[2] = system: LTB4 synthesis in human basophilic leucocytes; experiment: Inhibition of arachidonic acid induced LTB4 synthesis; type: cell-based; settings: Leucocyte, HPLC, UV 271 nm
Description: (§2) The inhibition of arachidonic acid induced LTB4 and LTC4 synthesis in human basophilic leucocytes was determined with liquid chromatography and UV detection. LTB4 and LTC4 were separated first by HPLC with a Spherisorb ODS colon (5 μm, 150×4.6 mm) and Spectroflow 400 Kratos Analytical pump. The flow rate was 1 ml/min and the solvents were methanol/water/acetic acid […], pH 5.0 for LTB4 and methanol/water/acetic acid/phosphoric acid (65/35/0.07/0.03), pH 5.5 for LTC4. The peaks were analyzed further with Spektroflow 773 Kratos Analytical UV absorbance detector and leukotrienes were detected at the wavelength of 271 nm and 280 nm for LTB4 and LTC4, respectively.

PDE IV [3] = experiment: Inhibition of PDE IV; type: biochemical; settings: PDE isoenzymes isolated using DEAE-Sepharose chromatography
Description: as §1

[4] = system: LTC4 synthesis in human basophilic leucocytes; experiment: Inhibition of arachidonic acid induced LTC4 synthesis; type: cell-based; settings: Leucocyte, HPLC, UV 280 nm
Description: as §2

PDE III [5] = biological target: T1, PDE III; settings: prior art compound, no test shown; cited from earlier work
PDE IV [6] = settings: prior art compound, no test shown; cited from earlier work

T1 sequence (Q14432 whole entry): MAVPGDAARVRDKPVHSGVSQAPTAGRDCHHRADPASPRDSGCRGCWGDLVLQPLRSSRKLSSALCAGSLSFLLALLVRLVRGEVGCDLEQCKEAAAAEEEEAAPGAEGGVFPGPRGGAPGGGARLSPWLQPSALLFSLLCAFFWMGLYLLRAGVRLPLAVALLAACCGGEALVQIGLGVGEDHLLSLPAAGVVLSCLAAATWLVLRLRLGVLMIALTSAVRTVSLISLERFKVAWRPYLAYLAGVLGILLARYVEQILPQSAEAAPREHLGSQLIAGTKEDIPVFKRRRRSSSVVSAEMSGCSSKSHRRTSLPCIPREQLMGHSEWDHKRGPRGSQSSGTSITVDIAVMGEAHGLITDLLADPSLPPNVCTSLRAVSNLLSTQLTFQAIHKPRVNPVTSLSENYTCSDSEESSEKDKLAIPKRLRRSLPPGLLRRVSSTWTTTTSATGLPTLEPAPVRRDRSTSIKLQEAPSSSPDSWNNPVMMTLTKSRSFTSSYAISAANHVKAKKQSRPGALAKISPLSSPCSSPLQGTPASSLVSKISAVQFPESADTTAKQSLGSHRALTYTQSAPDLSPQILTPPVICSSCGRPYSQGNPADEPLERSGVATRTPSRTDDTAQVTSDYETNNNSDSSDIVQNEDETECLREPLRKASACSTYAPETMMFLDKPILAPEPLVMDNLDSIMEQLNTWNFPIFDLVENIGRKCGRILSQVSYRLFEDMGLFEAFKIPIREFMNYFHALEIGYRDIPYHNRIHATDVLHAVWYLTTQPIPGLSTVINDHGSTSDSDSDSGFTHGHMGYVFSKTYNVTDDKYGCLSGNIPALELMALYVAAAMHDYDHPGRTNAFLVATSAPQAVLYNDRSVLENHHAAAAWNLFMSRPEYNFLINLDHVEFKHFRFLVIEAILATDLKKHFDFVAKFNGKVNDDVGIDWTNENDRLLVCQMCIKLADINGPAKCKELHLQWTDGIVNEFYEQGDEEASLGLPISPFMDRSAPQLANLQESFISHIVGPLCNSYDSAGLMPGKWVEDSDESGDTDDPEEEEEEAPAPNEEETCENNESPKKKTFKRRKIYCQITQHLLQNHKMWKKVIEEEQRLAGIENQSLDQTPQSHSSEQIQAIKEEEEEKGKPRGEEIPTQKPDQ

| SMILES | IC50 (PDE III [1]) | IC50 [2] | IC50 (PDE IV [3]) | IC50 [4] | inhibition of PDE III (in words) (PDE III [5]) | PDE IV selectivity (in words) (PDE IV [6]) |
| --- | --- | --- | --- | --- | --- | --- |
| COc1ccc(C2CC(=O)N(O)C2)cc1OC1CCCC1 (stereo not drawn) [Example 1, 1-Hydroxy-4-(3-cyclopentyloxy-4-methoxyphenyl)-2-pyrrolidone] | 205 µM | 3.7 µM | 0.9 µM | 3.2 µM |  |  |
| COc1ccc(C2CNC(=O)C2)cc1OC1CCCC1 (stereo not drawn) [rolipram, 4-[3-(cyclopentyloxy)-4-methoxyphenyl]-2-pyrrolidone] |  |  |  |  | also inhibits PDE III | not selective PDE IV inhibitor |
